Measured values from patent US4859664A, “Derivatives of 2,3,4,5,6,7-hexahydro-2,7-methano-1,5-benzoxazonines and -1,4-benzoxazonines, processes for their production and their use as pharmaceuticals” (priority 1986, dated 1989).

Tests used:
Format in all cases: in vivo, male NMRI mice
[1] = hot plate test; details: Mus musculus, sc; plate 54° C.; 30 and 60 min; limits in brackets; read-out: ED50 (50% increase of the reaction time)
Procedure: (§1) For the pharmacological investigations described in the following, there were used male NMRI mice with a weight of from 15 to 30 g. The animals were kept under usual laboratory conditions, randomised and subjected to a light-dark change with a 12 hour rhythm. They were given a standard feed and water ad libitum up to the commencement of the experiments.
(§2) The test compounds were administered in a volume of 10 ml./kg./body weight per mouse. As carrier, there was used physiological sodium chloride solution or a suspension of 0.5% tragacanth in physiological sodium chloride solution.
The experimental results are given as average values with a mean error of the average value (x±S.E.M.). The ED50 values were calculated according to Litchfield and Wilcoxon (J. Pharmacol. Exp. Ther., 96, 99/1949). The compounds were thereby tested in 4 dosages ([…]). […]
30 and 60 minutes after the subcutaneous administration of the test compounds, the experimental animals were placed on a metal plate, the surface temperature of which was kept constant at 54° C. The time was measured up to the commencement of a pain reaction (standing on the rear paws with licking and rubbing togeth4er of the front paws or jumping). In a preceding test, the average reaction time of the animals was determined from three measurements at intervals of, in each case, 15 minutes. […]

[2] = antidepressive action: reserpine reversal test (tetrabenazine); details: 50 and 25 mg./kg. s.c.
Procedure: as §1, §2
7. Antidepressive action.
There was used the reserpine reversal test (see G. Zettler, K. Mahler and F. Daniel, Naunyn-Schmiedeberg's Arch. Exp. Path. Pharmacol., 238, 468/1960; ibid. 236, 422/1958). 30 minutes after the subcutaneous administration of the test compounds, the animals (6 animals per dosage group) received subcutaneously 40 mg./kg. tetrabenazine dissolved in 0.5% aqueous ascorbic acid solution. 30 and 60 minutes after the tetrabenazine administration, the animals were placed on a vertical rod (length 90 cm., diameter 1.5 cm., coiled round with 0.2 cm. thick thread) and observed for 30 seconds. Those animals which remained motionless during this time were evaluated as being cataleptic. Previously, the degree of ptosis was assessed.

[3] = influencing of hexobarbital narcosis; details: for period of narcosis ± SEM: hexobarbital sodium 100 mg./kg. i.p.
Procedure: […]. They were given a standard feed and water ad libitum up to the commencement of the experiments.
as §2
The experimental results are given as average values with a mean error of the average value (x±S.E.M.). The ED50 values were calculated according to Litchfield and Wilcoxon (J. Pharmacol. Exp. Ther., 96, 99/1949). The compounds were thereby tested in 4 dosages (p≤0.5).
4. Influencing of hexobarbital narcosis.
The test compounds were administered subcutaneously to 5 animals per dosage group. After 30 minutes, 100 mg./kg. hexobarbital sodium was administered intraperitoneally. 2 to 3 minutes after this injection, the animals allowed themselves to be laid on their backs. For each animal, there was measured the time in minutes from the commencement of the back position up to the time when the animals themselves twice successively again assumed the abdominal position.

Structure (SMILES) | ED50 [1] | influence on tetrabenazine-induced catalepsy [2] | influence on tetrabenazine-induced ptosis [2] | change with regard to hexabarbital sodium ([3]; 25 mg/kg sc) | period of narcosis ± SEM ([3]; 25 mg/kg sc) | effect on period of narcosis ([3]; 50 mg./kg.) | change with regard to hexabarbital sodium ([3]; 50 mg/kg sc) | period of narcosis ± SEM ([3]; 50 mg/kg sc)
CC12CCNCC(C1)c1ccccc1O2 (centres unmarked) [Example 6, 2,3,4,5,6,7-hexahydro-2-methyl-2,7-methano-1,5-benzoxazonine] | 13.8 mg/kg | did not influence | did not influence |  |  |  |  | 
CC1NCCC2(C)CC1c1ccccc1O2 (centres unmarked) [Example 9, 2,3,4,5,6,7-hexahydro-2,6-dimethyl-2,7-methano-1,5-benzoxazonine] | 12 mg/kg | did not influence | did not influence | -29.4 min | 63 ± 21.0 min | statistically verified shortening of the period of narcosis | -53.4 min | 39 ± 12.4 min
